# Experimental data from patent US9657351B2, “MRNA-based gene expression for personalizing patient cancer therapy with an MDM2 antagonist” (Hoffmann-La Roche Inc., priority 2013, dated 2017).
# pIC50: −log10 of the molar value. Several values for one entry are separate records, joined by “and”; a condition that tells them apart may be missing. Identical values can stand only once.
# Key:
# MDM2 mRNA = experiment: NO21279 pharmacodynamic response, MDM2 mRNA by quantitative real-time PCR in leukemia cells; type: in vivo, human
# Description: The performance of the MDM2 antagonist predictive mRNA response signature is tested in the clinical setting with specimens from the NO21279 leukemia trial (FIG. 1). 28 AML patients treated at the MTD are enrolled and completed pretreatment and C1D10 (cycle 1, day 10) sampling. […] The clinical endpoint in NO21279 was divided into 4 categories: Complete Response (CR), Morphologic Leukemia-Free State (MLFS), Hematologic Improvement (HI), and Progressive Disease (PD). Blood leukemia samples and bone marrow biopsy samples were collected at baseline screening, after a single dose (cycle 1 day 2, C1D2) and on last day of dosing (cycle 1, day 10, C1D10) and isolated via MACS® separation^11. The early pharmacodynamic effect of MDM2 antagonism in blood leukemia samples was assessed by measuring MDM2 RT PCR change between baseline and C1D10. Global gene expression profiles were generated for the peripheral blood leukemia cells and bone marrow biopsy samples obtained at baseline, C1D2 and C1D10.
# MDM2 mRNA concentrations were assessed at Roche Molecular Systems by quantitative real-time PCR with 50 ng total RNA from MACs isolated leukemia cells from blood. TaqMan (Invitrogen, Carlsbad, Calif., USA) probes were designed to detect MDM2 mRNA and the reference mRNA, beta-glucuronidase, simultaneously using two different fluorescent reporters. Gene expression profiles were generated using Affymetrix U133 Plus 2.0 microarrays. Probset ID's for the each of the four genes on said U133 Plus 2.0 microarray are: 209375_s_at (for XPC); 205386_s_at and 211832_s_at (MDM2); 211692_s_at (BBC3); 207039_at and 211156_at (CDKN2A). […] The predictive patient signature score according to the present invention is then calculated using the following equation: patient signature score=GMDM2+GXPC+GBBC3−GCDKN2A. […] For example, for the patient data reported in Table 9 (Example 5), G is log 2 of the mRNA probeset expression of the relevant gene as measured with Affymetrix U133 Plus 2.0 microarrays.
# NCI-H226 = experiment: COMPOUND A In Vitro Assay; type: cell-based, human; settings: for pIC50: Homo sapiens
# Excerpt: (§1) To generate an MDM2 antagonist therapy predictive signature, the response of MDM2 antagonist therapy in vitro with gene expression profiling (FIG. 1) is combined. A bank of 287 human cancer cell lines, collectively termed the Cell Lines for Oncology/Chugai ACcumulative Tumour EncycLopedia (CELLO/CACTEL), representing a broad array of diverse human cancer tumor types are subject to evaluation using several high-throughput genomic technology platforms. The mutational status of nucleic acids from each cell line is determined by exome sequencing. Messenger RNA (mRNA) expression levels at baseline, prior to MDM2 antagonist therapy, are obtained via RNA sequencing. MDM2 antagonist therapy COMPOUND A, sometimes referred to herein as RG7112, responses are obtained by assays known to those skilled in the art such as RNA sequencing and microarray measurement using Gene Chip Human Genome U133 Plus 2.0 Array. The MDM2 therapy responses are obtained by high throughout screening assays. Depending on their responses to COMPOUND A these cell lines are classified as either sensitive, defined as IC50<=1, or resistant, defined as IC50>=10.
# (§2) 281 cells are treated with MDM2 antagonists and the IC50 (therapy response) is generated. The cell lines span a broad range of tumor cell types of derivation.
# PC-9 = experiment: COMPOUND A In Vitro Assay; type: cell-based, human; settings: for pIC50: Homo sapiens
# Excerpt: as §1, §2
# DU145 = experiment: COMPOUND A In Vitro Assay; type: cell-based, human
# Excerpt: as §1, §2
# MKN-45 = experiment: COMPOUND A In Vitro Assay; type: cell-based, human; settings: for pIC50: Homo sapiens
# Excerpt: as §1, §2
# 22Rv1 = experiment: COMPOUND A In Vitro Assay; type: cell-based, human; settings: for pIC50: Homo sapiens
# Excerpt: as §1, §2
# SW1463 = experiment: COMPOUND A In Vitro Assay; type: cell-based, human
# Excerpt: as §1, §2
# LCLC-103H = experiment: COMPOUND A In Vitro Assay; type: cell-based, human
# Excerpt: as §1, §2
# KMS-26 = experiment: COMPOUND A In Vitro Assay; type: cell-based, human; settings: for pIC50: Homo sapiens
# Excerpt: as §1, §2
# KMS-12-BM = experiment: COMPOUND A In Vitro Assay; type: cell-based, human; settings: TP53 mutant cell line
# Excerpt: as §1, §2
# NCI-H2122 = experiment: COMPOUND A In Vitro Assay; type: cell-based, human; settings: for pIC50: Homo sapiens
# Excerpt: as §1, §2
# LN-18 = experiment: COMPOUND A In Vitro Assay; type: cell-based, human; settings: for pIC50: Homo sapiens
# Excerpt: as §1, §2
# [1] = test system: Ki-67-positive tumor cells; experiment: NP21280 solid tumor trial, tumor biopsy biomarker (Ki67); type: in vivo, human; settings: p=2.62×10−2
# Description: The predictive mRNA signature is also evaluated in two solid tumor trials (FIG. 1). In trial NP21280 30 patients with pretreatment and C1D5 tumor biopsy samples are evaluated; and in NP22890 20 patients with pretreatment and C1D8 tumor biopsy samples are evaluated (Table 6). In both clinical trials, a biomarker package that enabled assessment of p53 pathway activation is assessed (p53 IHC, p21 IHC, MDM2 mRNA, and Ki67), MDM2 inhibition activates the P53 pathway and decreases cell proliferation.
# P53 = settings: NP22890; at C1D8; as previously reported; cited from earlier work
compound,measurement,setting,value
CCOc1cc(C(C)(C)C)ccc1C1=N[C@@](C)(c2ccc(Cl)cc2)[C@@](C)(c2ccc(Cl)cc2)N1C(=O)N1CCN(CCCS(C)(=O)=O)CC1 [COMPOUND A],median MDM2 mRNA expression increase over baseline,"MDM2 mRNA; C1D10 vs baseline, IQR 1.62-4.59, NO21279",2.46 times
same,"MDM2 mRNA (RT-PCR) fold change over baseline (C1D10), median increase","MDM2 mRNA; all patients, IQR 1.62-4.59",2.46x (IQR:
same,MDM2 mRNA (RT-PCR) fold change over baseline (C1D10),"MDM2 mRNA; individual AML patients (no. 1-28), NO21279, blood leukemia cells, listed as RG7112",2.23 fold and 5.67 fold and 5.05 fold and 9.66 fold and 1.79 fold and 23.00 fold and 2.01 fold and 1.72 fold and 5.07 fold and 3.20 fold and 4.35 fold and 1.27 fold and 2.51 fold and 0.96 fold and 1.69 fold and 2.26 fold and 1.52 fold and 3.88 fold and 2.65 fold and 5.11 fold and 9.46 fold and 1.00 fold and 1.59 fold and 1.67 fold and 3.00 fold
same,pIC50,"NCI-H226; NCI-H226, NCI-H226, Lung, TP53 Mutant",6.89
same,pIC50,"NCI-H226; NCI-H226, NCI-H226 cells",7.00
same,response to COMPOUND A (sensitive / resistant),"NCI-H226; NCI-H226, TP53 mutant cell line","sensitive (sensitive, defined as IC50<=1)"
same,pIC50,"PC-9; PC-9, PC-9, Lung, TP53 Mutant",6.16
same,pIC50,"PC-9; PC-9, PC-9 cells",6.15
same,response to COMPOUND A (sensitive / resistant),"PC-9; PC-9, TP53 mutant cell line","sensitive (sensitive, defined as IC50<=1)"
same,pIC50,"DU145; Homo sapiens, DU-145, Prostate, TP53 Mutant",6.00
same,response to COMPOUND A (sensitive / resistant),DU145; TP53 mutant cell line,"sensitive (sensitive, defined as IC50<=1)"
same,pIC50,"MKN-45; MKN-45, MKN-45, Stomach, TP53 Mutant",6.74
same,pIC50,"MKN-45; MKN-45, MKN-45 cells",6.70
same,response to COMPOUND A (sensitive / resistant),"MKN-45; MKN-45, TP53 mutant cell line","sensitive (sensitive, defined as IC50<=1)"
same,response to COMPOUND A (sensitive / resistant),"22Rv1; 22Rv1, TP53 mutant cell line","sensitive (sensitive, defined as IC50<=1)"
same,pIC50,"22Rv1; 22Rv1, 22Rv1, Prostate, TP53 Mutant",6.01
same,pIC50,"22Rv1; 22Rv1, 22Rv1 cells",6.00
same,pIC50,"SW1463; Homo sapiens, Intestine, large, rectum, TP53 Mutant",6.00
same,response to COMPOUND A (sensitive / resistant),SW1463; TP53 mutant cell line,"sensitive (sensitive, defined as IC50<=1)"
same,pIC50,"LCLC-103H; Homo sapiens, Lung, TP53 Mutant",6.15
same,response to COMPOUND A (sensitive / resistant),LCLC-103H; TP53 mutant cell line,"sensitive (sensitive, defined as IC50<=1)"
same,pIC50,"KMS-26; KMS-26, KMS-26, Lymphocyte, TP53 Mutant",6.35
same,pIC50,"KMS-26; KMS-26, KMS-26 cells",6.30
same,response to COMPOUND A (sensitive / resistant),"KMS-26; KMS-26, TP53 mutant cell line","sensitive (sensitive, defined as IC50<=1)"
same,response to COMPOUND A (sensitive / resistant),KMS-12-BM,"sensitive (sensitive, defined as IC50<=1)"
same,pIC50,"NCI-H2122; NCI-H2122, NCI-H2122, Lung, TP53 Mutant",6.80
same,pIC50,"NCI-H2122; NCI-H2122, NCI-H2122 cells",6.70
same,response to COMPOUND A (sensitive / resistant),"NCI-H2122; NCI-H2122, TP53 mutant cell line","sensitive (sensitive, defined as IC50<=1)"
same,pIC50,"LN-18; LN-18, LN-18, Brain, temporal lobe, TP53 Mutant",6.17
same,pIC50,"LN-18; LN-18, LN-18 cells",6.15
same,response to COMPOUND A (sensitive / resistant),"LN-18; LN-18, TP53 mutant cell line","sensitive (sensitive, defined as IC50<=1)"
same,Ki-67-positive tumor cells change from baseline,[1],decreased
same,P53 concentration change from baseline,P53,significantly increase
